Test results from the CheMixHub ionic liquid set.

Experiment: xn = mol fraction of the nth substance listed
Settings: 100 kPa

CCCCCCCCCCCCCCCC[N+](C)(C)C.[Br-] + NCC(=O)NCC(=O)O + O
Settings	electrical conductivity [S/m]
293.15 K, x1 = 3.61e-06, x2 = 0.0001802	0.0032
293.15 K, x1 = 5.41e-06, x2 = 0.0001802	0.0042
293.15 K, x1 = 7.22e-06, x2 = 0.0001802	0.0053
293.15 K, x1 = 9.02e-06, x2 = 0.0001802	0.006
293.15 K, x1 = 3.428e-05, x2 = 0.0001802	0.0097
293.15 K, x1 = 3.608e-05, x2 = 0.0001802	0.0099
298.15 K, x1 = 1.8e-06, x2 = 9.009e-05	0.0016
298.15 K, x1 = 3.61e-06, x2 = 9.009e-05	0.0027
298.15 K, x1 = 5.41e-06, x2 = 9.009e-05	0.0037
298.15 K, x1 = 5.41e-06, x2 = 0.0001802	0.0044
298.15 K, x1 = 7.21e-06, x2 = 9.009e-05	0.0048
298.15 K, x1 = 7.22e-06, x2 = 0.0001802	0.0054
298.15 K, x1 = 9.02e-06, x2 = 0.0001802	0.0062
298.15 K, x1 = 1.082e-05, x2 = 9.009e-05	0.0065
298.15 K, x1 = 1.082e-05, x2 = 0.0001802	0.0072
298.15 K, x1 = 1.262e-05, x2 = 1.802e-05	0.0046
298.15 K, x1 = 2.885e-05, x2 = 9.009e-05	0.0094
298.15 K, x1 = 3.067e-05, x2 = 0.0001802	0.0098
298.15 K, x1 = 3.245e-05, x2 = 9.009e-05	0.0099
303.15 K, x1 = 1.8e-06, x2 = 9.009e-05	0.0018
303.15 K, x1 = 3.61e-06, x2 = 9.009e-05	0.0029
303.15 K, x1 = 3.61e-06, x2 = 0.0001802	0.0036
303.15 K, x1 = 5.41e-06, x2 = 0.0001802	0.0046
303.15 K, x1 = 7.21e-06, x2 = 9.009e-05	0.005
303.15 K, x1 = 7.22e-06, x2 = 0.0001802	0.0055
303.15 K, x1 = 9.02e-06, x2 = 9.009e-05	0.006
303.15 K, x1 = 9.02e-06, x2 = 0.0001802	0.0064
303.15 K, x1 = 1.081e-05, x2 = 1.802e-05	0.0044
303.15 K, x1 = 1.082e-05, x2 = 9.009e-05	0.007
303.15 K, x1 = 1.082e-05, x2 = 0.0001802	0.0073
303.15 K, x1 = 1.262e-05, x2 = 1.802e-05	0.0051
303.15 K, x1 = 1.262e-05, x2 = 9.009e-05	0.0078
303.15 K, x1 = 1.263e-05, x2 = 0.0001802	0.0081
303.15 K, x1 = 1.622e-05, x2 = 1.802e-05	0.0061
303.15 K, x1 = 1.623e-05, x2 = 9.009e-05	0.0089
303.15 K, x1 = 1.624e-05, x2 = 0.0001802	0.009
303.15 K, x1 = 1.802e-05, x2 = 1.802e-05	0.0065
303.15 K, x1 = 1.803e-05, x2 = 9.009e-05	0.0092
303.15 K, x1 = 1.804e-05, x2 = 0.0001802	0.0098
303.15 K, x1 = 1.982e-05, x2 = 1.802e-05	0.007
303.15 K, x1 = 1.983e-05, x2 = 9.009e-05	0.0094
303.15 K, x1 = 1.984e-05, x2 = 0.0001802	0.0099
303.15 K, x1 = 2.164e-05, x2 = 9.009e-05	0.0095
303.15 K, x1 = 2.344e-05, x2 = 9.009e-05	0.0097
303.15 K, x1 = 2.524e-05, x2 = 9.009e-05	0.0099
303.15 K, x1 = 2.703e-05, x2 = 1.802e-05	0.0079
303.15 K, x1 = 2.883e-05, x2 = 1.802e-05	0.0081
303.15 K, x1 = 3.064e-05, x2 = 1.802e-05	0.0082
303.15 K, x1 = 3.244e-05, x2 = 1.802e-05	0.0084
303.15 K, x1 = 3.424e-05, x2 = 1.802e-05	0.0084
303.15 K, x1 = 3.604e-05, x2 = 1.802e-05	0.0086
308.15 K, x1 = 1.8e-06, x2 = 9.009e-05	0.0018
308.15 K, x1 = 1.8e-06, x2 = 0.0001802	0.003
308.15 K, x1 = 3.61e-06, x2 = 9.009e-05	0.003
308.15 K, x1 = 3.61e-06, x2 = 0.0001802	0.0039
308.15 K, x1 = 5.41e-06, x2 = 9.009e-05	0.0042
308.15 K, x1 = 5.41e-06, x2 = 0.0001802	0.0049
308.15 K, x1 = 7.21e-06, x2 = 9.009e-05	0.0052
308.15 K, x1 = 7.22e-06, x2 = 0.0001802	0.0057
308.15 K, x1 = 9.02e-06, x2 = 0.0001802	0.0066
308.15 K, x1 = 1.081e-05, x2 = 1.802e-05	0.0047
308.15 K, x1 = 1.262e-05, x2 = 1.802e-05	0.0055
308.15 K, x1 = 1.262e-05, x2 = 9.009e-05	0.0081
308.15 K, x1 = 1.442e-05, x2 = 1.802e-05	0.006
308.15 K, x1 = 1.622e-05, x2 = 1.802e-05	0.0063
308.15 K, x1 = 1.624e-05, x2 = 0.0001802	0.0099
308.15 K, x1 = 1.802e-05, x2 = 1.802e-05	0.0068
308.15 K, x1 = 1.803e-05, x2 = 9.009e-05	0.01
308.15 K, x1 = 2.163e-05, x2 = 1.802e-05	0.0076
308.15 K, x1 = 2.343e-05, x2 = 1.802e-05	0.0077
308.15 K, x1 = 2.523e-05, x2 = 1.802e-05	0.008
308.15 K, x1 = 2.703e-05, x2 = 1.802e-05	0.0082
308.15 K, x1 = 2.883e-05, x2 = 1.802e-05	0.0084
308.15 K, x1 = 3.064e-05, x2 = 1.802e-05	0.0084
308.15 K, x1 = 3.244e-05, x2 = 1.802e-05	0.0086
308.15 K, x1 = 3.424e-05, x2 = 1.802e-05	0.0087
308.15 K, x1 = 3.604e-05, x2 = 1.802e-05	0.009
313.15 K, x1 = 1.8e-06, x2 = 9.009e-05	0.0019
313.15 K, x1 = 1.8e-06, x2 = 0.0001802	0.0031
313.15 K, x1 = 3.61e-06, x2 = 9.009e-05	0.0033
313.15 K, x1 = 3.61e-06, x2 = 0.0001802	0.004
313.15 K, x1 = 5.41e-06, x2 = 9.009e-05	0.0045
313.15 K, x1 = 5.41e-06, x2 = 0.0001802	0.005
313.15 K, x1 = 7.21e-06, x2 = 1.802e-05	0.0039
313.15 K, x1 = 7.21e-06, x2 = 9.009e-05	0.0055
313.15 K, x1 = 7.22e-06, x2 = 0.0001802	0.0059
313.15 K, x1 = 9.02e-06, x2 = 9.009e-05	0.0064
313.15 K, x1 = 9.02e-06, x2 = 0.0001802	0.0067
313.15 K, x1 = 1.082e-05, x2 = 9.009e-05	0.0075
313.15 K, x1 = 1.082e-05, x2 = 0.0001802	0.0078
313.15 K, x1 = 1.262e-05, x2 = 1.802e-05	0.006
313.15 K, x1 = 1.262e-05, x2 = 9.009e-05	0.0084
313.15 K, x1 = 1.263e-05, x2 = 0.0001802	0.0085
313.15 K, x1 = 1.442e-05, x2 = 1.802e-05	0.0065
313.15 K, x1 = 1.442e-05, x2 = 9.009e-05	0.0091
313.15 K, x1 = 1.443e-05, x2 = 0.0001802	0.0094
313.15 K, x1 = 1.622e-05, x2 = 1.802e-05	0.0069
313.15 K, x1 = 1.802e-05, x2 = 1.802e-05	0.0075
313.15 K, x1 = 1.982e-05, x2 = 1.802e-05	0.0078
313.15 K, x1 = 2.163e-05, x2 = 1.802e-05	0.0081
313.15 K, x1 = 2.343e-05, x2 = 1.802e-05	0.0082
313.15 K, x1 = 2.523e-05, x2 = 1.802e-05	0.0084
313.15 K, x1 = 2.703e-05, x2 = 1.802e-05	0.0086
313.15 K, x1 = 2.883e-05, x2 = 1.802e-05	0.0089
313.15 K, x1 = 3.064e-05, x2 = 1.802e-05	0.009
313.15 K, x1 = 3.244e-05, x2 = 1.802e-05	0.0093
313.15 K, x1 = 3.424e-05, x2 = 1.802e-05	0.0095
313.15 K, x1 = 3.604e-05, x2 = 1.802e-05	0.0097

CCCCCCCCCCCCCCCC[n+]1ccccc1.[Br-] + NCC(=O)NCC(=O)O + O
electrical conductivity [S/m]
Settings	x1 = 8.993e-05, x2 = 0.001802	x1 = 8.996e-05, x2 = 0.001442	x1 = 8.999e-05, x2 = 0.001082	x1 = 9.003e-05, x2 = 0.0007216	x1 = 9.006e-05, x2 = 0.0003609	x1 = 9.009e-05, x2 = 0
298.15 K	0.023	0.022	0.021	0.02	0.019	0.021
303.15 K	0.024	0.023	0.022	0.021	0.02	0.021
308.15 K	0.025	0.024	0.023	0.022	0.021	0.022
313.15 K	0.026	0.025	0.024	0.023	0.022	0.024
